These results are taken from patent US20200383985A1, “Inhibitors of Protease Activated Receptor-2” (Endosome Therapeutics, Inc., priority 2017, published 2020).

The test system of one test is PKC and cAMP. Kind of test: FRET assays of PKC and cAMP in HEK293 cells. The test is classed as cell-based. The method, then: I-343, but not SCH530348, inhibited trypsin stimulation of PKC and cAMP, which thus depend on PAR2 (FIGS. 19G and H). […] The sustained plasma membrane cAMP response to trypsin support the existence of mechanisms that allow persistent PAR2 signaling, which warrant further investigation.
HEK293 cells were cultured in DMEM supplemented with 10% (v/v) FBS (5% CO2, 37° C.). When necessary serum restriction was achieved by replacing culture medium with DMEM containing 0.5% FBS overnight. Cells were transiently transfected using polyethylenimine (PEI) (1:6 DNA:PEI).
HEK293 cells were transiently transfected in 10 cm dishes (˜50% confluency) with Flag-PAR2-HA (2.5 μg) and FRET biosensors CytoEKAR or NucEKAR (2.5 μg) (Jensen, D. D. et al., Sci Transl Med. 2017, 9(392), eaal3447; Thomsen, A. R. B., et al., Cell 2016, 166(4): 907-919). In experiments examining the role of dynamin, cells were transfected with FLAG-PAR2-HA (1.25 μg), FRET biosensor (1.25 μg) and either DynWT-HA, DynK44E-HA or pcDNA3.1 (2.5 μg). At 24 h after transfection, cells were seeded on ViewPlate-96 well plates (PerkinElmer). FRET was assessed 72 h post-transfection, following overnight serum restriction. Cells were equilibrated in HBSS-HEPES (30 min, 37° C.). FRET was measured using a PHERAstar FSX Microplate Reader (BMG LabTech). For CFP/YFP emission ratio analysis, cells were sequentially excited using a CFP filter (425/10 nm) with emission measured using YFP (550/50 nm) and CFP (490/20 nm) filters. FRET was measured before and after stimulation with trypsin (10 nM), NE (100 nM), CS (100 nM), phorbol 12,13-dibutyrate, PDBu (positive control, 1 μM), or vehicle. FRET ratios (donor/acceptor intensity for EKAR, or acceptor/donor intensity for CKAR and Epac) were calculated and corrected to baseline and vehicle treatments to determine ligand-induced FRET (ΔFRET). Treatment effects were determined by comparison of area under the curve values. Signalling inhibitors were dissolved in HBSS-HEPES. PS2 and PS2 inact were dissolved in HBSS-HEPES+1% DMSO. […]

For another test, the target named is T1, mPAR2-GFP (Mus musculus, UniProt P55086).
T1 construct: expressed in transfected cells; host or cells: mouse (C57BL/6) DRG neurons, nucleofection
T1 sequence (P55086 26-399): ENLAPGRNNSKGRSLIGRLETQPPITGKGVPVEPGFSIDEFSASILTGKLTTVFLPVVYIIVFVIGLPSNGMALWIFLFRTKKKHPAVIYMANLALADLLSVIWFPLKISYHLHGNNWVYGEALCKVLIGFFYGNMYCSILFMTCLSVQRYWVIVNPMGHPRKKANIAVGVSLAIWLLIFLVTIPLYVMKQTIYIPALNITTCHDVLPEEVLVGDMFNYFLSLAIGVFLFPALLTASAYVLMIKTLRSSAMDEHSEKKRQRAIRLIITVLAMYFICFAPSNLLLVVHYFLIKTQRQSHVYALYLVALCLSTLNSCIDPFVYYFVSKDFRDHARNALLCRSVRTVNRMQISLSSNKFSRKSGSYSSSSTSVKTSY
Put plainly: PAR2 trafficking (endocytosis) in DRG neurons. The test is classed as cell-based. The conditions noted are these: for mPAR2-GFP endocytosis: protease 100 nM, 30 min. On the procedure:
To assess endocytosis of PAR2 in nociceptors, mouse (m) PAR2-GFP was transfected in to mouse DRG neurons. In vehicle-treated neurons, mPAR2-GFP was detected at the plasma membrane and in intracellular compartments that may correspond to stores of PAR2 in the Golgi apparatus (FIG. 4A) (Jensen D. D., et al. J Biol Chem. 2016, 291(21): 11285-11299). Trypsin, but not NE or CS (100 nM, 30 min), induced mPAR2-GFP endocytosis (FIG. 4A, B). Dy4, but not Dy4 inact, inhibited trypsin-induced endocytosis of mPAR2-GFP (FIG. 4C). To determine whether PAR2 recruits βARRs, which mediate endocytosis, Bioluminescence Resonance Energy Transfer (BRET) sensors were expressed for PAR2-RLuc8 (donor) and βARR2-YFP (acceptor) in mouse DRG neurons. Trypsin, but not NE or CS, increased PAR2-RLuc8/βARR2-YFP BRET (FIG. 4D).
DRG were collected from C57BL/6 mice and Sprague-Dawley rats (all levels). DRG were incubated with collagenase IV (2 mg/ml) and dispase II (1 mg/ml) for 30 min (mice) and 45 min (rats) at 37° C. DRG were dispersed by trituration with a fire-polished Pasteur pipette. Dissociated neurons were transfected with mPAR2-GFP (1 μg), the FRET biosensors CytoEKAR, NucEKAR, pmCKAR or CytoCKAR (all […]), or with the BRET biosensors PAR2-RLuc8 (125 ng) and βARR2-FYP (475 ng) using the Lonza 4D-Nucleofector X unit according to the manufacturer's instructions. […]
Mouse DRG neurons expressing mPAR2-GFP were incubated with trypsin (10 nM), CS (100 nM), NE (100 nM) or vehicle (30 min, 37° C.), and were fixed (4% paraformaldehyde, 20 min, 4C). NeuN was detected by indirect immunofluorescence as described (Jensen, D. D. et al., Sci Transl Med. 2017, 9(392), eaal3447). […] PAR2 internalization in NeuN-positive neurons was quantified using ImageJ software. The border of the cytoplasm in the neuronal soma was defined by NeuN fluorescence. mPAR2-GFP fluorescence within 0.5 μm of the border was defined as plasma membrane-associated receptor. The ratio of plasma membrane to cytosolic mPAR2-GFP was determined.

Consider `Cc1nc(C(=O)N2CCN(C(=O)c3cn4nc(-c5ccc(F)cc5)cc(C(C)(C)C)c4n3)C(C)(C)C2)n[nH]1` [Compound I-343, (8-(tert-butyl)-6-(4-fluorophenyl)imidazo[1,2-b]pyridazin-2-yl)(2,2-dimethyl-4-(5-methyl-1H-1,2,4-triazole-3-carbonyl)piperazin-1-yl)methanone], for which, in the test with PKC and cAMP (HEK293 cells), the “trypsin stimulation of PKC and cAMP” value is given as “inhibited”. As for `O=C(N/N=C/c1cc(O)c(O)cc1O)c1cc2ccccc2cc1O` [Dy4], the “trypsin-induced endocytosis of mPAR2-GFP” value at mPAR2-GFP (preincubated with Dy4 or Dy4 inact) is listed as “inhibited”. In the case of “NE: protease (elastase) activating PAR2 by biased mechanisms”, the mPAR2-GFP endocytosis entry with mPAR2-GFP is listed as “not”. Take trypsin: the mPAR2-GFP endocytosis entry on mPAR2-GFP is reported as “induced”. Further, in the test on PKC and cAMP (trypsin 10 nM), the “PKC activation and cAMP generation at the plasma membrane and in the cytosol” value was “rapid and sustained activation”.
